Key:
Format in all cases: in vivo
[1] = system: Echinochloa crus-galli (ECHCG); test: Example B post-emergence herbicidal test, ECHCG; conditions: Echinochloa crus-galli, 312 h, rate 250 g/ha, evaluated after 13 days, scale 0-100, read-out: Post-emergence activity ECHCG (100=total damage to plant; 0=no damage to plant)
Procedure: (§1) Seeds of a variety of test species were sown in standard soil in pots. After cultivation for one day (pre-emergence) or after 8 days cultivation (post-emergence) under controlled conditions in a glasshouse (at 24/16° C., day/night; 14 hours light; 65% humidity), the plants were sprayed with an aqueous spray solution derived from the formulation of the technical active ingredient in acetone/water (50:50) solution containing 0.5% Tween 20 (polyoxyethelyene sorbitan monolaurate, CAS RN 9005-64-5). The test plants were then grown in a glasshouse under controlled conditions in a glasshouse (at 24/16° C., day/night; 14 hours light; 65% humidity) and watered twice daily. After 13 days for pre and post-emergence, the test was evaluated (100=total damage to plant; 0=no damage to plant). Lolium perenne (LOLPE), Alopecurus myosuroides (ALOMY), Echinochloa crus-galli (ECHCG), Avena fatua (AVEFA) Post-Emergence Activity

Avena fatua (AVEFA) [2] = test: Example B post-emergence herbicidal test, AVEFA; conditions: Avena fatua, 312 h, rate 250 g/ha, evaluated after 13 days, scale 0-100, read-out: Post-emergence activity AVEFA (100=total damage to plant; 0=no damage to plant)
Procedure: as §1

[3] = system: Alopecurus myosuroides (ALOMY); test: Example B post-emergence herbicidal test, ALOMY; conditions: Alopecurus myosuroides, 312 h, rate 250 g/ha, evaluated after 13 days, scale 0-100, read-out: Post-emergence activity ALOMY (100=total damage to plant; 0=no damage to plant)
Procedure: as §1

Lolium perenne (LOLPE) [4] = test: Example B post-emergence herbicidal test, LOLPE; conditions: Lolium perenne, 312 h, rate 250 g/ha, evaluated after 13 days, scale 0-100, read-out: Post-emergence activity LOLPE (100=total damage to plant; 0=no damage to plant)
Procedure: as §1

Avena fatua (AVEFA) [5] = test: Example B pre-emergence herbicidal test, AVEFA; conditions: Avena fatua, 312 h, rate 250 g/ha, evaluated after 13 days, 100=total damage to plant, 0=no damage to plant
Procedure: as §1, with “Pre-Emergence” for “Post-Emergence”

[6] = system: Alopecurus myosuroides (ALOMY); test: Example B pre-emergence herbicidal test, ALOMY; conditions: Alopecurus myosuroides, 312 h, rate 250 g/ha, evaluated after 13 days, 100=total damage to plant, 0=no damage to plant
Procedure: as §1, with “Pre-Emergence” for “Post-Emergence”

[7] = system: Echinochloa crus-galli (ECHCG); test: Example B pre-emergence herbicidal test, ECHCG; conditions: Echinochloa crus-galli, 312 h, rate 250 g/ha, evaluated after 13 days, 100=total damage to plant, 0=no damage to plant
Procedure: as §1, with “Pre-Emergence” for “Post-Emergence”

Lolium perenne (LOLPE) [8] = test: Example B pre-emergence herbicidal test, LOLPE; conditions: Lolium perenne, 312 h, rate 250 g/ha, evaluated after 13 days, 100=total damage to plant, 0=no damage to plant
Procedure: as §1, with “Pre-Emergence” for “Post-Emergence”

Row | SMILES | pest or weed control at 250 g/ha [1] | pest or weed control at 250 g/ha (Avena fatua (AVEFA) [2]) | pest or weed control at 250 g/ha [3] | pest or weed control at 250 g/ha (Lolium perenne (LOLPE) [4]) | pest or weed control at 250 g/ha (Avena fatua (AVEFA) [5]) | pest or weed control at 250 g/ha [6] | pest or weed control at 250 g/ha [7] | pest or weed control at 250 g/ha (Lolium perenne (LOLPE) [8])
1 | Cc1cc(C)c(C2C(=O)CC(CC3C[C@@H]4O[C@H]3[C@@H]3C(=O)NC(=O)[C@@H]34)C2=O)c(C)c1 (relative stereo) [Compound T127] | 20% | 10% | 20% | 20% |  |  |  | 
2 | COC1=C(c2c(C)cc(C)cc2C)C(=O)C(CC2CCOCC2)C1 (stereo not drawn) [Compound P4] | 20% | 40% | 60% | 30% |  |  |  | 
3 | Cc1cc(C)c(C2=C(OC(=O)C(C)(C)C)C/C(=C\C3CCSCC3)C2=O)c(C)c1 [Compound P9] | 50% | 10% | 30% | 40% | 0% | 30% | 20% | 40%
4 | Cc1cc(C)c(C2=C(OC(=O)C3CC3)CC(CC3CCOC3)C2=O)c(C)c1 (stereo not drawn) [Compound P14] | 90% | 90% | 90% | 100% | 80% | 100% | 100% | 100%
5 | Cc1cc(C)c(C2=C(OC(=O)C3CCCCC3)CC(CC3CCOC3)C2=O)c(C)c1 (stereo not drawn) [Compound P15] | 100% | 90% | 100% | 100% | 90% | 100% | 100% | 100%
6 | COc1ccc(C(=O)OC2=C(c3c(C)cc(C)cc3C)C(=O)C(CC3CCOC3)C2)cc1 (stereo not drawn) [Compound P18] | 90% | 90% | 90% | 100% | 80% | 100% | 90% | 100%
7 | Cc1cc(C)c(C2=C(OC(=O)OCC(C)C)CC(CC3CCOC3)C2=O)c(C)c1 (stereo not drawn) [Compound P23] | 90% | 90% | 90% | 100% | 80% | 100% | 100% | 100%
8 | Cc1cc(C)c(C2=C(OC(=O)OCC(C)(C)C)CC(CC3CCOC3)C2=O)c(C)c1 (stereo not drawn) [Compound P24] | 90% | 90% | 90% | 100% | 90% | 100% | 90% | 100%
9 | C=CCOC(=O)OC1=C(c2c(C)cc(C)cc2C)C(=O)C(CC2CCOC2)C1 (stereo not drawn) [Compound P25] | 100% | 90% | 90% | 100% | 80% | 100% | 90% | 90%
10 | Cc1cc(C)c(C2=C(OC(=O)Oc3ccccc3)CC(CC3CCOC3)C2=O)c(C)c1 (stereo not drawn) [Compound P26] | 100% | 90% | 100% | 100% | 80% | 100% | 90% | 100%
11 | CCS(=O)(=O)OC1=C(c2c(C)cc(C)cc2C)C(=O)C(CC2CCOC2)C1 (stereo not drawn) [Compound P27] | 90% | 80% | 80% | 100% | 80% | 100% | 80% | 100%
12 | Cc1cc(C)c(C2=C(OS(=O)(=O)C3CC3)CC(CC3CCOC3)C2=O)c(C)c1 (stereo not drawn) [Compound P28] | 60% | 70% | 70% | 100% | 30% | 70% | 20% | 100%
13 | Cc1cc(C)c(C2=C(OC(=O)N3CCCCC3)CC(CC3CCOC3)C2=O)c(C)c1 (stereo not drawn) [Compound P29] | 30% | 70% | 80% | 100% | 20% | 50% | 0% | 90%
14 | CCSC(=O)OC1=C(c2c(C)cc(C)cc2C)C(=O)C(CC2CCOC2)C1 (stereo not drawn) [Compound P30] | 90% | 100% | 100% | 100% | 90% | 100% | 80% | 100%
15 | Cc1cc(C)c(C2=C(OC(=O)c3ccco3)CC(CC3CCN(C(=O)c4ccco4)C3)C2=O)c(C)c1 (stereo not drawn) [Compound P62] | 70% | 70% | 70% | 80% |  |  |  | 
16 | COC1=C(c2c(C)cc(C)cc2C)C(=O)C/C1=C\C1CCOCC1 [Compound P69] | 80% | 20% | 0% | 40% |  |  |  | 
17 | Cc1cc(C)c(C2C(=O)CC(C(O)C3CCSCC3)C2=O)c(C)c1 (stereo not drawn) [Compound T6] | 10% | 0% | 20% | 10% |  |  |  | 
18 | Cc1cc(C)c(C2C(=O)CC(CC3CCNCC3)C2=O)c(C)c1 (stereo not drawn) [Compound T53] |  |  |  |  | 0% | 30% | 0% | 40%
19 | Cc1ccc(S(=O)(=O)N2CCC(CC3CC(=O)C(c4c(C)cc(C)cc4C)C3=O)CC2)cc1 (stereo not drawn) [Compound T109] |  |  |  |  | 0% | 0% | 0% | 0%
20 | Cc1cc(C)c(C2C(=O)CC(CC3CCN(C(=O)/C=C/c4ccccc4)CC3)C2=O)c(C)c1 (stereo not drawn) [Compound T116] | 50% | 90% | 60% | 90% |  |  |  | 
21 | Cc1cc(-c2ccc(C(F)(F)F)cc2)cc(C)c1C1C(=O)C/C(=C\C2CCOCC2)C1=O (stereo not drawn) [Compound T133] | 90% | 30% | 20% | 0% |  |  |  | 
22 | Cc1cc(-c2ccc(C(F)(F)F)cc2)cc(C)c1C1C(=O)CC(CC2CCOCC2)C1=O (stereo not drawn) [Compound T136] | 60% | 70% | 50% | 30% |  |  |  | 
23 | CCC1(CC2CCOC2)CC(=O)C(c2c(C)cc(C)cc2C)C1=O (stereo not drawn) [Compound T152] | 10% | 10% | 20% | 30% |  |  |  | 
24 | COCC1(CC2CCOC2)CC(=O)C(c2c(C)cc(C)cc2C)C1=O (stereo not drawn) [Compound T153] | 10% | 20% | 10% | 20% |  |  |  | 
